Assay results published in paper PMC12505664, “Enflicoxib for the long-term management of canine osteoarthritis—External validation of a population pharmacokinetic model in dogs with osteoarthritis” (Frontiers in Veterinary Science, 2025).
Where two headings read alike, the source gives them in different places.

Tests used:
[1] = parameters: method as in PMID 34160092; settings: cited from earlier work
dogs with OA = assay: Safety assessment in the field clinical study (hematology, biochemistry, urine, adverse events); type: in vivo, client-owned dogs with OA; settings: 6 months weekly treatment
Method: To assess safety, blood samples for hematology and biochemistry, as well as urine samples, were repeated on days 44 and 189. The following hematological and biochemical parameters were determined: red blood cell (RBC) count, white blood cell (WBC) total and differential count, platelet (thrombocyte) count and estimate, hematocrit, hemoglobin, and reticulocytes. Amylase, albumin, alkaline phosphatase, alanine-aminotransferase (ALT), aspartate-aminotransferase (AST), calcium, cholesterol, creatinine, creatine kinase, globulin, glucose, γ-Glutamyltransferase (γ-GT), magnesium, phosphorus, potassium, sodium, total bilirubin, total protein, and urea.
Urine samples were analyzed for blood/erythrocytes/hemoglobin, glucose, ketone bodies, protein, leukocytes, nitrite, specific weight, pH value, bilirubin, and urobilinogen.
Safety was also assessed by recording any adverse events (AEs) that occurred during the study, regardless of their nature, severity, or whether they were product-related or not.

Beagle dogs = system: Beagle dogs; parameters: method as in PMID 34082759; settings: cited from earlier work
[2] = Maximum a posteriori Bayesian (MAPB) estimation of individual PK parameters in dogs with OA; type: in vivo
Description: As a similar PK behavior between populations was concluded, the same popPK model could be used, and a Bayesian approach was used for the determination of individual enflicoxib and the pyrazol metabolite exposure in osteoarthritic animals.
A maximum a posteriori Bayesian (MAPB) estimation using the post hoc subroutine in NONMEM was used to provide the individual PK parameters in osteoarthritic dogs.
MAPB estimation applied likelihood maximization in the form of minimizing the objective function (minus 2 log likelihood), to estimate individual PK parameters of each dog with OA. In this analysis, the MAPB estimation incorporated both a priori PK information, that is, the established PK model of enflicoxib and the pyrazol metabolite in healthy Beagle dogs, and a posteriori PK data, which corresponds to PK data from osteoarthritic dogs. The individual PK parameters along with individual predicted PK profiles for each dog treated with enflicoxib were calculated by fitting the animal PK dataset, which includes dosing, sampling times, parent and metabolite levels, and covariate information, to the established population enflicoxib and the pyrazol metabolite PK model in healthy Beagle dogs.
The maximum a posteriori Bayesian (MAPB) estimation was applied to provide the most likely individual PK profile for each dog with OA, using the “POSTHOC” subroutine and $ESTIMATION command set to MAXEVAL=0 in NONMEM.
Individual PK parameters and individual PK profiles of enflicoxib and the pyrazol metabolite were estimated for each dog.
Finally, the Bayesian approach enabled the estimation of the main individual PK parameters of enflicoxib and the pyrazol metabolite. Using these individual PK parameters, predicted profiles for each animal were estimated, allowing the calculation of the derived exposure parameters, such as Cmax, Cmin, AUCτ, and T1/2 in all treated dogs. The distribution and the mean estimates of enflicoxib and the pyrazol metabolite PK parameters at selected time points are depicted in Supplementary Figures S3, S4, respectively.

[3] = overdose study, repeated weekly administrations, Beagle dogs; cited from earlier work
[4] = parameters: method as in PMID 34854245; settings: popPK model, cited from earlier work
canine osteoarthritis = system: canine osteoarthritis; parameters: method as in Salichs et al., Vet Rec. 2022; settings: ref Salichs et al., Vet Rec. 2022, cited from earlier work; for Number of animals presenting AEs (%): Emesis or nausea: AEs classified A, B or O; for Emesis and nausea: Number of events: AEs related to the GI system
[5] = parameters: method as in PMID 34160092; settings: previously validated method, cited from earlier work
[6] = mean across weeks, Bayesian predicted profiles
[7] = interindividual variability as % CV
[8] = parent, typical value at 9.9 kg

Compound: NS(=O)(=O)c1ccc(N2N=C(C(F)(F)F)CC2c2ccc(F)cc2F)cc1 (centres unmarked) [Enflicoxib]
- mean terminal elimination half-life (t 1/2) ([1]; Beagle dogs, oral): 20 h
- Effect of food on absorption [1]: food increases absorption
- Incidence and type of adverse events over time (dogs with OA): no tendency to increase over time
- Hematological and biochemical parameters (dogs with OA; days 44 and 189): generally within the reference ranges
- Tolerability in overdose study (Beagle dogs; 3 times the recommended dose (12 mg/kg) for 7 months): well-tolerated
- Tolerability in overdose study (Beagle dogs; 5 times the recommended dose (20 mg/kg) for 3 months): well-tolerated
- Time-dependent pharmacokinetics or over-accumulation ([2]; 6 months of weekly treatment): no evidence of time-dependent pharmacokinetics or over-accumulation
- AUCτ [2, 6]: 3,810 ng/mL·d
- Cmin [2, 6]: ~ 185 ng/mL
- Cmax ([2]; mean, all weeks of weekly treatment, Bayesian predicted profiles): ≈ 1,173 ng/mL
- Time to PK steady-state ([2]; weekly treatment): 4 weeks
- Dose proportionality of pharmacokinetics [3]: dose-proportional pharmacokinetics
- IIV of CL2/F (apparent clearance of irreversible biotransformation to pyrazol metabolite) [4, 7]: 49%
- IIV of Lag Time (Tlag) [4, 7]: 68%
- IIV of V/F (apparent volume of distribution in the central compartment) [4, 7]: 94%
- IIV of absorption rate (ka) [4, 7]: 101%
- Residual variability ([4]; log error model, % CV): 34%
- Absorption rate (ka), estimate ([4]; parent): 0.220 hr – 1
- Lag Time (Tlag), estimate ([4]; parent): 0.249 h
- CL1/F = θ5·(WGT/9.9)^0.75, θ5 estimate (apparent clearance to other elimination pathways) [4, 8]: 0.193 L/h
- CL2/F = θ6·(WGT/9.9)^0.75, θ6 estimate (apparent clearance of irreversible biotransformation to pyrazol metabolite) [4, 8]: 0.520 L/h
- V/F = θ4·(WGT/9.9)^1.0, θ4 estimate (apparent volume of distribution, central compartment) [4, 8]: 6.59 L
- Number of animals presenting AEs (%): Emesis or nausea (canine osteoarthritis; Enflicoxib 2 mg/kg group n=60): 3 (5.0)
- Emesis and nausea: Number of events (canine osteoarthritis; Enflicoxib 2 mg/kg group n=60): 3
- Diarrhoea / pasty stools: Duration range (canine osteoarthritis; Enflicoxib 2 mg/kg group n=60): 2 to 8 days
- Diarrhoea / pasty stools: Mean duration (canine osteoarthritis; Enflicoxib 2 mg/kg group n=60): 5.6 days
- Diarrhoea / pasty stools: Number of events (canine osteoarthritis; Enflicoxib 2 mg/kg group n=60): 3
- Diarrhoea / pasty stools: Treatment needed (canine osteoarthritis; Enflicoxib 2 mg/kg group n=60): 1
- Emesis and nausea: Mean duration (canine osteoarthritis; Enflicoxib 2 mg/kg group n=60): 3 days
- Emesis and nausea: Treatment needed (canine osteoarthritis; Enflicoxib 2 mg/kg group n=60): 0
- Number of animals presenting AEs (%): Abdominal pain (canine osteoarthritis; Enflicoxib 2 mg/kg group n=60): 0
- Number of animals presenting AEs (%): Acute renal failure (canine osteoarthritis; Enflicoxib 2 mg/kg group n=60): 0
- Number of animals presenting AEs (%): Apathy (canine osteoarthritis; Enflicoxib 2 mg/kg group n=60): 1 (1.7)
- Number of animals presenting AEs (%): Constipation (canine osteoarthritis; Enflicoxib 2 mg/kg group n=60): 0
- Number of animals presenting AEs (%): Diarrhoea or pasty stools (canine osteoarthritis; Enflicoxib 2 mg/kg group n=60): 4 (6.7)
- Number of animals presenting AEs (%): Increased salivation (canine osteoarthritis; Enflicoxib 2 mg/kg group n=60): 0
- Number of animals presenting AEs (%): Polydipsia (canine osteoarthritis; Enflicoxib 2 mg/kg group n=60): 0
- Number of animals presenting AEs (%): Total (canine osteoarthritis; Enflicoxib 2 mg/kg group n=60): 6 (10%)
- Number of animals presenting AEs (%): Weight loss (canine osteoarthritis; Enflicoxib 2 mg/kg group n=60): 1 (1.7)
- Emesis and nausea: Duration range (canine osteoarthritis; Enflicoxib 2 mg/kg group n=60, upper end one animal): 1 to 6 days
- Number of animals presenting AEs (%): Emesis or nausea (canine osteoarthritis; Enflicoxib 4 mg/kg group n=61): 7 (11.5)
- Emesis and nausea: Number of events (canine osteoarthritis; Enflicoxib 4 mg/kg group n=61): 9
- Diarrhoea / pasty stools: Duration range (canine osteoarthritis; Enflicoxib 4 mg/kg group n=61): 1 to 4 days
- Diarrhoea / pasty stools: Mean duration (canine osteoarthritis; Enflicoxib 4 mg/kg group n=61): 3 days
- Diarrhoea / pasty stools: Number of events (canine osteoarthritis; Enflicoxib 4 mg/kg group n=61): 7
- Diarrhoea / pasty stools: Treatment needed (canine osteoarthritis; Enflicoxib 4 mg/kg group n=61): 3
- Emesis and nausea: Duration range (canine osteoarthritis; Enflicoxib 4 mg/kg group n=61): 1 to 3 days
- Emesis and nausea: Mean duration (canine osteoarthritis; Enflicoxib 4 mg/kg group n=61): 1.4 days
- Emesis and nausea: Treatment needed (canine osteoarthritis; Enflicoxib 4 mg/kg group n=61): 2
- Number of animals presenting AEs (%): Abdominal pain (canine osteoarthritis; Enflicoxib 4 mg/kg group n=61): 0
- Number of animals presenting AEs (%): Acute renal failure (canine osteoarthritis; Enflicoxib 4 mg/kg group n=61): 0
- Number of animals presenting AEs (%): Apathy (canine osteoarthritis; Enflicoxib 4 mg/kg group n=61): 2 (3.3)
- Number of animals presenting AEs (%): Constipation (canine osteoarthritis; Enflicoxib 4 mg/kg group n=61): 0
- Number of animals presenting AEs (%): Diarrhoea or pasty stools (canine osteoarthritis; Enflicoxib 4 mg/kg group n=61): 5 (8.2)
- Number of animals presenting AEs (%): Increased salivation (canine osteoarthritis; Enflicoxib 4 mg/kg group n=61): 1 (1.6)
- Number of animals presenting AEs (%): Polydipsia (canine osteoarthritis; Enflicoxib 4 mg/kg group n=61): 1 (1.6)
- Number of animals presenting AEs (%): Total (canine osteoarthritis; Enflicoxib 4 mg/kg group n=61): 12 (19.7)
- Number of animals presenting AEs (%): Weight loss (canine osteoarthritis; Enflicoxib 4 mg/kg group n=61): 0
- Stability in dog plasma ([5]; following 4 freeze–thaw cycles): stable
- Stability in dog plasma ([5]; nominally −20 °C for 402 days): stable
- Stability in dog plasma ([5]; room temperature for 4 h): stable
- Long-term stability in dog plasma samples ([5]; stored at −20 °C): ≥ 402 days
